Laboratory results from patent US12642270B2, “Substituted thiophene carboxamides, thiophene carboxylic acids and derivatives thereof” (Bayer Aktiengesellschaft, priority 2019, dated 2026).

Experiment: Log P by HPLC on reversed phase columns (EEC directive 79/831 Annex V.A8)
Format: physicochemical
In short: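 Values come from retention times calibrated against alkan-2-ones (3–16 carbons) by linear interpolation, using reversed-phase LC-UV per EEC directive 79/831 Annex V.A8. Acetonitrile gradient 10–95% with 0.1% formic acid [a], 0.001 M ammonium acetate [b] or 0.1% phosphoric acid [c]; several values within one method separated by "+".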

[1] = LogP method [a], compounds of formula (I), Table 1.1

| Compound | LogP [1] | LogP (method [a]) |
| --- | --- | --- |
| CCOC(=O)C(NC(=O)c1cc(Cl)c(Br)s1)C(C)C (stereo not drawn) [1.0441] | 3.85^[a] |  |
| COC(=O)C(CC(F)F)NC(=O)c1cc(Cl)c(Br)s1 (stereo not drawn) [1.0442] | 2.96^[a] |  |
| CCOC(=O)C(Cc1ccccc1)NC(=O)c1cc(Cl)c(Br)s1 (stereo not drawn) [1.0443] | 4.01^[a] |  |
| CCOC(=O)C(CC(C)C)NC(=O)c1cc(Cl)c(Br)s1 (stereo not drawn) [1.0444] | 4.19^[a] |  |
| CCOC(=O)C1(CNC(=O)c2sc(Br)c(Br)c2F)CC1 [1.0445] | 3.86^[a] |  |
| CCOC(=O)C1(NC(=O)c2sc(Br)c(Br)c2F)CCCC1 [1.0446] | 4.21^[a] |  |
| COC(=O)C1(NC(=O)c2sc(Br)c(Br)c2F)CCOCC1 [1.0447] | 2.77^[a] |  |
| COC(=O)CC(C)NC(=O)c1sc(Br)c(Br)c1F (stereo not drawn) [1.0448] | 3.14^[a] |  |
| CCOC(=O)CNC(=O)c1sc(Br)c(Br)c1F [1.0449] | 2.97^[a] |  |
| CCOC(=O)CCNC(=O)c1sc(Br)c(Br)c1F [1.0450] | 3.11^[a] |  |
| CCOC(=O)C(NC(=O)c1sc(Br)c(Br)c1F)C(C)C (stereo not drawn) [1.0451] | 2.63^[a] |  |
| CCOC(=O)C1(NC(=O)c2cc(Cl)c(Br)s2)CCC1 [1.0452] | 3.29^[a] |  |
| CCOC(=O)CCNC(=O)c1cc(Br)c(Cl)s1 [1.0453] | 2.80^[a] |  |
| CCOC(=O)C1(NC(=O)c2cc(Cl)c(Br)s2)CC1 [1.0454] | 2.80^[a] |  |
| O=C(NC1(C(=O)O)CC1)c1cc(Cl)c(Br)s1 [1.0455] | 1.99^[a] |  |
| CCOC(=O)CCNC(=O)c1cc(F)c(Br)s1 [1.0456] | 2.47^[a] |  |
| CCOC(=O)CNC(=O)c1cc(Br)c(Cl)s1 [1.0457] | 2.63^[a] |  |
| CCOC(=O)C1(NC(=O)c2cc(Br)c(Cl)s2)CC1 [1.0458] | 3.43^[a] |  |
| CCOC(=O)C1(NC(=O)c2cc(F)c(Br)s2)CCC1 [1.0459] | 2.98^[a] |  |
| CCOC(=O)C1(NC(=O)c2cc(F)c(Br)s2)CC1 [1.0460] | 2.51^[a] |  |
| CCOC(=O)CNC(=O)c1cc(Cl)c(Br)s1 [1.0461] | 2.59^[a] |  |
| CCOC(=O)CCNC(=O)c1cc(Cl)c(Br)s1 [1.0462] | 2.77^[a] |  |
| CCOC(=O)C1(NC(=O)c2sc(C)c(Br)c2F)CC1 [1.0463] | 2.80^[a] |  |
| CCOC(=O)CNC(=O)c1cc(C)c(Cl)s1 [1.0464] | 2.33^[a] |  |
| CCOC(=O)CCNC(=O)c1cc(C)c(Cl)s1 [1.0465] | 2.49^[a] |  |

| Compound | LogP [1] | LogP (method [a]) |
| --- | --- | --- |
| CCOC(=O)C1(NC(=O)c2cc(C)c(Cl)s2)CC1 [1.0466] | 2.52^[a] |  |
| CCOC(=O)CNC(=O)c1cc(F)c(Br)s1 [1.0467] | 2.28^[a] |  |
| CCOC(=O)C1(NC(=O)c2cc(I)c(I)s2)CC1 [1.0468] | 2.98^[a] |  |
| O=C(NC1(C(=O)O)CC1)c1cc(I)c(I)s1 [1.0469] | 2.08^[a] |  |
| NC(=O)C1(NC(=O)C2(NC(=O)c3cc(I)c(I)s3)CC2)CC1 [1.0470] | 1.88^[a] |  |
| O=C(O)CNC(=O)c1cc(I)c(I)s1 [1.0471] | 1.87^[a] |  |
| COC(=O)C(Cc1ccccc1)NC(=O)c1sc(Br)c(Br)c1F (stereo not drawn) [1.0472] | 4.06^[a] |  |
| CSCCC(NC(=O)c1sc(Br)c(Br)c1F)C(=O)O (stereo not drawn) [1.0473] | 2.75^[a] |  |
| O=C(O)CNC(=O)CNC(=O)c1cc(I)c(I)s1 [1.0474] | 1.63^[a] |  |
| NC(=O)C1(NC(=O)c2cc(I)c(I)s2)CC1 [1.0475] | 1.87^[a] |  |
| CCOC(=O)C1(NC(=O)C2(NC(=O)c3cc(I)c(I)s3)CC2)CC1 [1.0476] | 2.59^[a] |  |
| CSC(=O)C1(NC(=O)c2cc(I)c(I)s2)CC1 [1.0477] | 3.04^[a] |  |
| O=C(NC1(C(=O)NC2(C(=O)O)CC2)CC1)c1cc(I)c(I)s1 [1.0478] | 1.53^[a] |  |
| CCOC(=O)C1(NC(=S)c2cc(Cl)c(Br)s2)CC1 [1.0479] | 3.92^[a] |  |
| CCSC(=O)C1(NC(=O)c2cc(I)c(I)s2)CC1 [1.0480] | 3.39^[a] |  |
| CCOC(=O)CCNC(=O)c1sc(C)c(Br)c1F [1.0481] | 2.78^[a] |  |
| CCOC(=O)C(C)NC(=O)c1sc(Cl)c(Br)c1Br (stereo not drawn) [1.0482] | 3.91^[a] |  |
| COC(=O)C1(NC(=O)c2sc(Cl)c(Br)c2Br)CC1 [1.0483] | 3.08^[a] |  |
| CCOC(=O)CNC(=S)c1sc(Cl)c(Br)c1Cl [1.0484] | 4.59^[a] |  |
| COC(=O)CNC(=S)c1sc(Cl)c(Br)c1Cl [1.0485] | 4.08^[a] |  |
| O=C(NC1(C(=O)O)CCC1)c1sc(Cl)c(Br)c1Cl [1.0486] | 2.95^[a] |  |
| O=C(NC1(C(=O)O)COC1)c1sc(Br)c(Br)c1F [1.0489] | 1.98^[a] |  |
| O=C(NC1(C(=O)O)CCC1)c1sc(Br)c(Br)c1Cl [1.0490] | 2.92^[a] |  |
| CCOC(=O)CN(O)C(=O)c1sc(Cl)c(Cl)c1Br [1.0491] | 2.95^[a] |  |
| COC(=O)CNC(=O)c1sc(Br)c(Br)c1Cl [1.0492] | 2.92^[a] |  |

| Compound | LogP [1] | LogP (method [a]) |
| --- | --- | --- |
| CCOC(=O)CNC(=S)c1sc(Br)c(Br)c1Cl [1.0493] | 4.58^[a] |  |
| O=C(O)CNC(=O)c1sc(Br)c(Br)c1Cl [1.0494] | 2.28^[a] |  |
| CCOC(=O)C(NC(=O)c1sc(Br)c(Br)c1F)C1CC1 (stereo not drawn) [1.0495] | 3.98^[a] |  |
| COC(=O)C(NC(=S)c1sc(Br)c(Br)c1F)C1CC1 (stereo not drawn) [1.0496] | 4.62^[a] |  |
| COC(=O)C(Cc1ccccc1)NC(=S)c1sc(Br)c(Br)c1F (stereo not drawn) [1.0497] | 5.32^[a] |  |
| COC(=O)CC[C@H](NC(=O)c1sc(Br)c(Br)c1Cl)C(=O)OC [1.0498] | 3.40^[a] |  |
| COC(=O)CNC(=S)c1sc(Cl)c(Cl)c1I [1.0499] | 4.12^[a] |  |
| O=C(O)CNC(=S)c1sc(Cl)c(Br)c1Cl [1.0500] | 3.10^[a] |  |
| CCOC(=O)C(NC(=O)c1sc(Br)c(C(F)F)c1Br)C(C)C (stereo not drawn) [1.0502] | 4.21^[a] |  |
| COC(=O)C(NC(=O)c1sc(Br)c(C(F)F)c1Br)C1CC1 (stereo not drawn) [1.0503] | 3.37^[a] |  |
| CCOC(=O)C(Cc1ccccc1)NC(=O)c1sc(Br)c(C(F)F)c1Br (stereo not drawn) [1.0504] | 4.40^[a] |  |
| COC(=O)C1(NC(=O)c2sc(Br)c(C(F)F)c2Br)CCC1 [1.0505] | 3.25^[a] |  |
| CCOC(=O)C1(NC(=O)c2sc(Br)c(C(F)F)c2Br)CCC1 [1.0506] | 3.66^[a] |  |
| CCCOC(=O)C1(NC(=O)c2sc(Br)c(C(F)F)c2Br)CC1 [1.0507] | 3.42^[a] |  |
| O=C(NC1(C(=O)OC2CCC2)CC1)c1sc(Br)c(C(F)F)c1Br [1.0508] | 3.57^[a] |  |
| N#CCNC(=O)c1sc(Br)c(C(F)F)c1Br [1.0509] | 2.37^[a] |  |
| CCOC(=O)CNC(=O)c1sc(C(F)F)c(Br)c1Br [1.0510] | 3.02^[a] |  |
| COC(=O)CNC(=O)c1sc(C(F)F)c(Br)c1Br [1.0511] | 2.64^[a] |  |
| COC(=O)C1(NC(=O)c2sc(C(F)F)c(Br)c2Br)CC1 [1.0512] | 2.79^[a] |  |
| COC(=O)C(C)(C)NC(=O)c1sc(C(F)F)c(Br)c1Br [1.0513] | 3.32^[a] |  |
| CCOC(=O)C(NC(=O)c1sc(C(F)F)c(Br)c1Br)C(C)C (stereo not drawn) [1.0514] | 4.30^[a] |  |
| COC(=O)C(NC(=O)c1sc(C(F)F)c(Br)c1Br)C1CC1 (stereo not drawn) [1.0515] | 3.46^[a] |  |
| CCOC(=O)C(Cc1ccccc1)NC(=O)c1sc(C(F)F)c(Br)c1Br (stereo not drawn) [1.0516] | 4.48^[a] |  |
| COC(=O)C1(NC(=O)c2sc(C(F)F)c(Br)c2Br)CCC1 [1.0517] | 3.35^[a] |  |
| CCOC(=O)C1(NC(=O)c2sc(C(F)F)c(Br)c2Br)CCC1 [1.0518] | 3.75^[a] |  |

| Compound | LogP [1] | LogP (method [a]) |
| --- | --- | --- |
| CCCOC(=O)C1(NC(=O)c2sc(C(F)F)c(Br)c2Br)CC1 [1.0519] | 3.51^[a] |  |
| O=C(NC1(C(=O)OC2CCC2)CC1)c1sc(C(F)F)c(Br)c1Br [1.0520] | 3.67^[a] |  |
| N#CCNC(=O)c1sc(C(F)F)c(Br)c1Br [1.0521] | 2.45^[a] |  |
| CCOC(=O)C1(NC(=O)c2sc(C(F)F)c(Br)c2Br)CC1 [1.0522] | 3.14^[a] |  |
| CC(C)(NC(=O)c1sc(Br)c(Br)c1F)C(=O)O [1.0523] | 2.54^[a] |  |
| CCOC(=O)C(NC(=O)c1sc(Cl)c(Cl)c1Br)C1CC1 (stereo not drawn) [1.0524] | 4.35^[a] |  |
| COC(=O)C1(NC(=S)c2sc(Br)c(Cl)c2C)CC1 [1.0526] | 3.67^[a] |  |
| COC(=O)CNC(=O)c1sc(Br)c(Br)c1F [1.0527] | 2.52^[a] |  |
| COC(=O)C(CC(=O)OC(C)(C)C)NC(=O)c1sc(Br)c(Br)c1Cl (stereo not drawn) [1.0528] | 4.55^[a] |  |
| COC(=O)[C@H](CSC(=O)N(C)C)NC(=O)c1sc(Cl)c(Cl)c1Br [1.0529] | 3.58^[a] |  |
| CCNC(=O)SC[C@H](NC(=O)c1sc(Cl)c(Cl)c1Br)C(=O)OC [1.0530] |  | 3.39^[a] |
| CNC(=S)SC[C@H](NC(=O)c1sc(Cl)c(Cl)c1Br)C(=O)OC [1.0531] |  | 3.56^[a] |
| CCOC(=O)CC[C@H](NC(=O)c1sc(Br)c(Br)c1Cl)C(=O)OCC [1.0532] |  | 4.23^[a] |
| COC(=O)[C@H](CSC(=O)N(C)C)NC(=O)c1sc(Br)c(Br)c1F [1.0533] |  | 3.27^[a] |
| CNC(=S)SC[C@H](NC(=O)c1sc(Br)c(Br)c1F)C(=O)OC [1.0534] |  | 3.24^[a] |
| COC(=O)C(CSC(=O)N(C)C)NC(=O)c1sc(Br)c(Br)c1Cl (stereo not drawn) [1.0535] |  | 3.59^[a] |
| CCNC(=O)SCC(NC(=O)c1sc(Br)c(Br)c1Cl)C(=O)OC (stereo not drawn) [1.0536] |  | 3.38^[a] |
| CNC(=S)SC[C@H](NC(=O)c1sc(Br)c(Br)c1Cl)C(=O)OC [1.0537] |  | 3.54^[a] |
| COC(=O)CNC(=S)c1sc(Br)c(Br)c1F [1.0538] |  | 3.74^[a] |
| COC(=O)C1(NC(=O)c2sc(Br)c(Br)c2F)CC1 [1.0539] |  | 2.09^[a] |
| COC(=O)C(C)(C)NC(=O)c1sc(Br)c(Br)c1F [1.0540] |  | 3.34^[a] |
| COC(=O)C1(NC(=O)c2sc(Br)c(Br)c2F)COC1 [1.0541] |  | 2.49^[a] |
| CCOC(=O)CN(O)C(=O)c1sc(Br)c(Br)c1F [1.0542] |  | 2.54^[a] |
| CCNC(=O)SC[C@H](NC(=O)c1sc(Br)c(Br)c1F)C(=O)OC [1.0543] |  | 3.10^[a] |
